Experimental data published in ChEMBL document CHEMBL3588825, “Identification of Oxaphenalenone Ketals from the Ascomycete Fungus Neonectria sp” (J Nat Prod, 2015).
Activity calls are given as the source filed them.

Assays:
Assay type in all cases: functional, cell-based
HeLa = assay: Cytotoxicity against human HeLa cells at 50 uM after 90 mins by MTS assay
A549 = assay: Cytotoxicity against human A549 cells at 50 uM after 90 mins by MTS assay
MCF7 = assay: Cytotoxicity against human MCF7 cells at 50 uM after 90 mins by MTS assay
HCT-116 = assay: Cytotoxicity against human HCT116 cells at 50 uM after 90 mins by MTS assay
SW480 = assay: Cytotoxicity against human SW480 cells at 50 uM after 90 mins by MTS assay
T-24 = assay: Cytotoxicity against human T24 cells at 50 uM after 90 mins by MTS assay

Measured: Activity

COc1cc2c3c4c(c(O)cc(C)c14)C(=O)O[C@@H]3[C@@H]1C[C@@H](C)O[C@]1(C[C@H]1CCC(=O)O1)O2
inactive: HeLa | A549 | MCF7 | HCT-116 | SW480 | T-24
